Test results taken from patent US20160015033A1, “COMPOUNDS DERIVED FROM HERBICIDAL CARBOXYLIC ACIDS AND TETRAALKYLAMMONIUM OR (ARYLALKYL)TRIALKYLAMMONIUM HYDROXIDES” (DOW AGROSCIENCES LLC, priority 2014, published 2016).

Tests used:
Kochia Kochia scoparia = assay: Post-emergence greenhouse herbicide evaluation, Kochia; type: in vivo; settings: 560 g ae/ha, 14 days after application, visual injury 0 to 100% vs untreated control
Excerpt: (§1) A peat based potting soil, Metro-mix 360, was used as the soil media for this test. Metro-mix is a growing medium consisting of 35 to 45% specially processed Coconut Coir Pith, 10 to 20% horticultural grade vermiculite, 15 to 25% processed Ash Bark, 20 to 30% choice Canadian Sphagnum Peat Moss and proprietary nutrients and other ingredients. Several seeds of each species were to planted in 10 cm square pots and top watered twice daily. Plant material was propagated in the greenhouse at a constant temperature of 26 to 28° C. and 50 to 60% relative humidity. Natural light was supplemented with 1000-watt metal halide overhead lamps with an average illumination of 500 μE m^−2 s^−1 photosynthetic active radiation (PAR). Day length was 16 hours. Plant material was top-watered prior to treatment and sub-irrigated after treatment. […] The growth stage of the various weed species ranged from 2 to 4 leaf. Treatments were replicated 3 times. Plants were returned to the greenhouse after treatment and sub-watered throughout the duration of the to experiment. Plant material was fertilized twice weekly with Hoagland's fertilizer solution. Percent visual injury assessments were made on a scale of 0 to 100% as compared to the untreated control plants (where 0 is equal to no injury and 100 is equal to complete death of the plant).

[1] = tested on: Broadleaf Dock Rumex obtusifolia; assay: Post-emergence greenhouse herbicide evaluation, Broadleaf Dock; type: in vivo; settings: 560 g ae/ha, 14 days after application, visual injury 0 to 100% vs untreated control
Excerpt: as §1

[2] = tested on: grapes (Vitis labrusca L.); assay: Volatility evaluation: injury to grapes from vapor exposure; settings: wheat sprayed at 11200 g ae/ha, 24 hour vapor exposure at 40° C., evaluated 7 days after exposure
Excerpt: Four pots of wheat (Triticum aestivum L.) grown in 4 inch square pots were sprayed at 11200 g ae/ha with each of the different forms of 2,4-D. Treatments were applied with a tracksprayer manufactured by Allen Machine Works. The sprayer utilized an 8002E spray nozzle, spray pressure of 262 kPa pressure and speed of 1.5 mph (2.4 km/h) to deliver 187 L/Ha. The nozzle height was 46 cm above the plant canopy. The growth stage of the wheat was 1 to 2 leaf. The wheat plants were allowed to thoroughly dry to ensure that none of the spray solution was present when they were moved into a clean pot flat. A known sensitive species, grapes (Vitis labrusca L.) were placed at the opposite end of the flat. All of the pots were covered with a humidome with small ½ inch (1.27 cm) diameter holes cut into the end where the wheat was placed and a small box fan powered with a battery in the other end to pull air across the treated wheat plants and over the top of grapes. Plants were placed into a growth chamber with the temperature set at 40° C. with a 14 hour day and a 10 hour night cycle. A 24 hour exposure period was used after which the sensitive plants were then removed and placed in the greenhouse and evaluated for injury from vapor exposure to the treatments.

Molecule | % Control Kochia Kochia scoparia (Kochia Kochia scoparia) | % Control Broadleaf Dock Rumex obtusifolia [1] | % Injury to grapes from vapor exposure [2]
CNC.O=C(O)COc1ccc(Cl)cc1Cl [2,4-D dimethylamine (DMA), 2,4-D dimethylamine, reference compound] | 86% | 77% | 78%
CCCCOCCOC(=O)COc1ccc(Cl)cc1Cl [2,-4-D butoxyethylester (BEE), 2,-4-D butoxyethylester] | – | – | 100%
C[N+](C)(C)C.O=C([O-])COc1ccc(Cl)cc1Cl [Compound 1a] | 83% | 77% | –
CC[N+](CC)(CC)CC.O=C([O-])COc1ccc(Cl)cc1Cl [Compound 1b] | 89% | 79% | 0%
CCC[N+](CCC)(CCC)CCC.O=C([O-])COc1ccc(Cl)cc1Cl [Compound 1c] | 83% | 73% | –
C[N+](C)(C)CCO.O=C([O-])COc1ccc(Cl)cc1Cl [Compound 1e] | 86% | 68% | –
C[N+](C)(C)C.O=C([O-])COc1nc(Cl)c(Cl)cc1Cl [Compound 2a] | 79% | 85% | –
CC[N+](CC)(CC)CC.O=C([O-])COc1nc(Cl)c(Cl)cc1Cl [Compound 2b] | 88% | 79% | 6%
CCC[N+](CCC)(CCC)CCC.O=C([O-])COc1nc(Cl)c(Cl)cc1Cl [Compound 2c] | 95% | 79% | –
COc1c(Cl)ccc(Cl)c1C(=O)[O-].C[N+](C)(C)C [Compound 4a] | – | – | 12%
CCN(CC)CC.O=C(O)COc1nc(Cl)c(Cl)cc1Cl [Triclopyr triethylamine (TEA), Triclopyr triethylamine, reference compound] | 91% | 81% | 57%
Dicamba DMA | – | – | 70%
